# Data from publication PMC5382548 (Scientific Reports, 2015).
# Tests used:
# KRAS21R G4 = experiment: FRET melting assay, KRAS21R G4; assay type: binding, human; details: G4 0.2 μM, ligand 1 μM, K-cacodylate buffer pH 7.4, 60 mM K+
# Description: (§1) Fluorescence resonance energy transfer (FRET) studies with DNA sequences labelled at the 5′ and 3′ ends, were conducted to evaluate the G4 DNA stabilizing properties of IQcs (at 0.1 to 5 μM ligand concentrations). The G4-forming sequence KRAS21R[11], together with T-loop, a 26-mer hairpin double-stranded DNA (ds-DNA) sequence were used in the first screening assay. Reproducible IQc dose-dependent melting curves (Sup. Inf.; Figure S3) and stabilization temperature (ΔTm) values were obtained (Figure 2 and Table S5).
# (§2) Figure 2 FRET stabilization temperatures (ΔTm) of KRAS21R G4 and hairpin ds-DNA (T-loop) at 0.2 μM, in K-cacodylate buffer (pH = 7.4, 60 mM K^+), stabilized by IQc derivatives and TMPyP4 at 1 μM. ^a) SD ≤ 0.2°C. TEXT PRINTED IN THE PICTURE: TMPyP4: ΔTm / °C ^a) (T-Loop): 16.0; ΔTm / °C ^a) (KRAS21R): 25.1 | 3e: ΔTm / °C ^a) (T-Loop): 6.5; ΔTm / °C ^a) (KRAS21R): 22.0 | 3d: ΔTm / °C ^a) (T-Loop): 5.6; ΔTm / °C ^a) (KRAS21R): 19.9 | 2d: ΔTm / °C ^a) (T-Loop): 6.1; ΔTm / °C ^a) (KRAS21R): 15.1 | 2a: ΔTm / °C ^a) (T-Loop): 1.5; ΔTm / °C ^a) (KRAS21R): 4.4 […]
# (§3) Oligonucleotide sequences were purchased from Eurofins MWG Synthesis GmbH, Germany or STAB VIDA Genomics Lab, Caparica, Lisbon, Portugal. The labelled oligonucleotides used in the FRET assays had attached the donor fluorophore FAM (6-carboxyfluorescein) and the acceptor fluorophore TAMRA (6-carboxytetramethylrhodamine): KRAS21R: 5′-FAM-[…]-TAMRA-3′; KRAS32R: 5′-FAM-[…]-TAMRA-3′; UTR-1: 5′-FAM-GCGGCGGCGGAGG-TAMRA-3′; UTR-2: 5′-FAM-[…]-TAMRA-3; T-Loop:5′-FAM-[…]-TAMRA-3′; F21T: 5′-FAM-[…]-TAMRA-3′. Non-labelled oligonucleotides were used in FRET competition assays and in the spectroscopic studies: ds26: - d(5′-CAATCGGATCGAATT CGATCCGATTG-3′); KRAS21R: 5′-[…]-3′; HT21: 5′-[…]-3′. Each oligonucleotide was initially diluted to a storage solution at 100 μM in nuclease-free water (not DEPC-treated), purchased from Ambion Applied Biosystems UK.
# (§4) The ability of indolo[3,2-c]quinolines to stabilize DNA sequences was investigated using a Fluorescence Resonance Energy Transfer (FRET) assay as reported elsewhere.
# (§5) Figure S3 (cont.)| Concentration-dependent (0.1, 0.5, 1, 2, 3, 4 and 5 µM) FRET melting profiles of G4 structures and T-loop DNA with indolo[3,2-c]quinoline derivatives 1a, 2a-g and 3d-j in K-cacodylate buffer (pH 7.4, 60 mM K+). […]
# (§6) Table S5 | FRET stabilization temperatures (ΔTm) of G4s sequences and ds-DNA (0.2 µM) stabilized by […]
# [1] = test system: T-loop, a 26-mer hairpin double-stranded DNA; experiment: FRET melting assay, T-loop hairpin ds-DNA; assay type: binding; details: ds-DNA 0.2 μM, ligand 1 μM, K-cacodylate buffer pH 7.4, 60 mM K+
# Description: as §1, §2, §3, §4, §5, §6
# [2] = test system: colon cancer cell lines with mutated KRAS; experiment: Anti-proliferative activity, colon cancer cell lines with mutated KRAS; assay type: cell-based; details: Homo sapiens; range over HCT116 and SW620
# Source text: These differences may be due to differing effects on cellular proliferation mechanisms, on cellular uptake and/or intracellular distribution. Assuming a passive diffusion membrane transport for IQcs, compound 2d is expected to accumulate more inside cells due to its predicted higher lipophilicity than compounds with an additional protonated basic group at physiologic pH (3d and 3e). Similarly, the tetra-cationic porphyrin TMPyP4, which is known to have low cell-membrane permeability, gave higher IC50 values.
# HCT116 human colon carcinoma cells, SW620 human colorectal adenocarcinoma and HEK293 T human embryonic kidney cells were grown in Dulbecco's modified Eagle's medium (DMEM) supplemented with 10% fetal bovine serum, and 1% antibiotic/antimycotic (Invitrogen, Grand Island, NY, USA) and maintained at 37°C in a humidified atmosphere of 5% CO2. […] Following 72 h of compound exposure, cell viability was evaluated using the CellTiter 96 AQueous Non-Radioactive Cell Proliferation Assay (Promega, Madison, WI, USA), using 3-(4,5-dimethylthiazol-2-yl)-5-(3-carboxymethoxyphenyl)-2-(4-sulfophenyl)-2H-tetrazolium, inner salt (MTS) as previously described. Cell viability data were expressed as mean ± SEM or mean ± SD from at least three independent experiments. IC50 and IC65 values were determined using GaphPad Prism v.5.00 (GraphPad Software). […]
# [3] = test system: SW620 metastatic colon cancer cells; experiment: Guava ViaCount assay, SW620; assay type: cell-based, human; details: IC65 concentration, 72 h
# Source text: The ability of IQcs to induce cell death in colon cancer cell lines with different genotypes (HCT116 and SW620) and in the non-malignant cell line HEK293T was studied by a Guava Via Count assay and compared with the behaviour of 5-FU and TMPyP4 at equitoxic concentrations (IC50 and IC65). Results in Figure 7 show dose-dependent induction of cell death, mainly by apoptosis, by all tested compounds in the HCT116 colon cancer cell line. […] In SW620 metastatic colon cancer cells, cell death induction was highly dependent on the number and position of side chains in IQc compounds. […]
# Figure 7 Evaluation of the effect of IQc on cell viability using the ViaCount assay. […] Results are expressed as the mean percentage (%) of viable (white), mid-apoptotic (grey) and dead (black) cells ± SEM, of at least three different experiments, for (a) IC50, and for (b) IC65 compound concentrations. a, p < 0.05; b, p < 0.01 from DMSO (vehicle control); c, p < 0.05; and d, p < 0.01 from 5-FU. […]
# Taqman Real-time PCR reactions were performed using 1.5 µg of total RNA, using High Capacity RNA to cDNA kit, according to the manufacturer`s instruction. […] The comparative threshold cycle method was used to calculate the amplification factor, where the threshold cycle (Ct) is defined as the cycle number at which the fluorescence passes the fixed threshold intensity level. […]
# HCT116 (colon) = experiment: MTS short-term cytotoxicity assay, HCT116; assay type: cell-based, human; details: Homo sapiens, HCT-116; MTS assay, 72 h; read-out: IC50 HCT116
# Description: (§7) Short-term anti-proliferative assays were carried out by two different assays using a panel of human cancer and non-malignant human cell lines. […] The transformed human embryonic kidney cell line HEK293T (wt KRAS) was sensitive to all tested drugs, including TMPyP4, a cationic porphyrin established as a G4 ligand, as well as the anticancer drug 5-fluorouracil (5-FU).
# (§8) HCT116 human colon carcinoma cells, SW620 human colorectal adenocarcinoma and HEK293 T human embryonic kidney cells were grown in Dulbecco's modified Eagle's medium (DMEM) supplemented with 10% fetal bovine serum, and 1% antibiotic/antimycotic (Invitrogen, Grand Island, NY, USA) and maintained at 37°C in a humidified atmosphere of 5% CO2. Cells were seeded in 96 well plates at 5.000 cells/well. Twenty-four hours after cell plating, media was removed and replaced with fresh media containing test compounds and 5-FU (Sigma), a common cytotoxic agent used in colon cancer treatmen, or vehicle control (DMSO). Following 72 h of compound exposure, cell viability was evaluated using the CellTiter 96 AQueous Non-Radioactive Cell Proliferation Assay (Promega, Madison, WI, USA), using 3-(4,5-dimethylthiazol-2-yl)-5-(3-carboxymethoxyphenyl)-2-(4-sulfophenyl)-2H-tetrazolium, inner salt (MTS) as previously described. Cell viability data were expressed as mean ± SEM or mean ± SD from at least three independent experiments. IC50 and IC65 values were determined using GaphPad Prism v.5.00 (GraphPad Software). (Performed at Cell Function and Therapeutic Targeting Group, iMed.ULisboa)
# [4] = test system: HEK293T (embryonic kidney); experiment: MTS short-term cytotoxicity assay, HEK293T; assay type: cell-based; details: Homo sapiens, HEK-293T; MTS assay, 72 h; read-out: IC50 HEK293T
# Description: as §7, §8
# SW620 (metastatic colon) = experiment: MTS short-term cytotoxicity assay, SW620; assay type: cell-based; details: Homo sapiens, SW-620; MTS assay, 72 h; read-out: IC50 SW620
# Description: as §7, §8
Structure (SMILES),FRET stabilization temperature ΔTm (KRAS21R) (KRAS21R G4),FRET stabilization temperature ΔTm (T-loop) [1],further results
C[n+]1cc2c3ccccc3[nH]c2c2cc(NCCCN3CCOCC3)ccc21 [2f],10.1 °C,3.4 °C,–
CCN(CC)CCCNc1ccc2c(c1)[nH]c1c2c[n+](Cc2ccccc2)c2ccc(NCCCN(CC)CC)cc12.[Cl-] [3j],16.8 °C,5.2 °C,–
"O=c1[nH]cc(F)c(=O)[nH]1 [5-FU, 5-fluorouracil, reference compound]",–,–,"IC50 [2]: 2.38 to 5.39 µM; Cell death induced, SW620 [3]: > 20%"
Brc1ccc2ncc3c4ccccc4[nH]c3c2c1 [compound 1],reduced or negligible ability to stabilize the KRAS21R G4,0.4 °C,IC50 (HCT116 (colon)): 9.91 µM; IC50 [4]: 8.03 µM; FRET stabilization temperature ΔTm (KRAS21R) (KRAS21R G4; listed as 1a): 0.7 °C; IC50 (SW620 (metastatic colon)): 10.7 µM
Brc1ccc2c3cn(Cc4ccccc4)c4ccc(Br)cc4c-3nc2c1 [3c],–,0.3 °C,–
CC(C)NCCCNc1ccc2c(c1)c1[nH]c3ccccc3c1c[n+]2C [2c],14.5 °C,9.1 °C,–
CCN(CC)CCCC(C)Nc1ccc2c(c1)c1[nH]c3ccccc3c1c[n+]2C.[Cl-] (centres unmarked) [2g],15.4 °C,1.9 °C,–
CCN(CC)CCNc1ccc2c(c1)c1[nH]c3ccccc3c1c[n+]2C [2b],12.6 °C,7.2 °C,–
CCN(CC)CCCC(C)Nc1ccc2[nH]c3c(c[n+](C)c4ccc(NC(C)CCCN(CC)CC)cc34)c2c1.[Cl-] (centres unmarked) [3h],11.8 °C,1.7 °C,–
C[n+]1cc2c3cc(NCCCN4CCOCC4)ccc3[nH]c2c2cc(NCCCN3CCOCC3)ccc21 [3f],14.1 °C,4.9 °C,–
C[n+]1cc2c3ccccc3[nH]c2c2cc(NCCCN3CCCCC3)ccc21 [2e],13.4 °C,5.2 °C,–
CCN(CC)CCCC(C)Nc1ccc2c(c1)[nH]c1c2c[n+](C)c2ccc(NC(C)CCCN(CC)CC)cc12.[Cl-] (centres unmarked) [3i],13.9 °C,2.4 °C,–
C[n+]1cc2c3ccc(NCCCN4CCOCC4)cc3[nH]c2c2cc(NCCCN3CCOCC3)ccc21 [3g],13.2 °C,2.9 °C,–
